From PubChem BioAssay (NCI)
Values joined by “and” are separate entries in the source; they are usually repeats but may differ in a detail not shown here. Equal entries are not always repeated.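 A five-concentration, 48-hour dose response in 96-well plates underlies each endpoint, interpolated linearly between surrounding concentrations. GI50 = concentration required for 50% inhibition of growth. Definition used: TGI = concentration required for complete inhibition of growth.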

Tests used:
Experiment in all cases: NCI-60 cell line screen, 48 h
A498 renal = tested on: A498 renal
SK-MEL-2 melanoma = tested on: SK-MEL-2 melanoma
COLO 205 colon = tested on: COLO 205 colon
CCRF-CEM leukemia = tested on: CCRF-CEM leukemia
NCI-H460 lung = tested on: NCI-H460 lung
HOP-92 NSCLC = tested on: HOP-92 NSCLC
786-0 renal = tested on: 786-0 renal
U251 CNS = tested on: U251 CNS
SN12C renal = tested on: SN12C renal
SF-268 CNS = tested on: SF-268 CNS

Compound	TGI (A498 renal) [µM]	TGI (SK-MEL-2 melanoma) [µM]	TGI (COLO 205 colon) [µM]	TGI (CCRF-CEM leukemia) [µM]	TGI (NCI-H460 lung) [µM]	TGI (HOP-92 NSCLC) [µM]	TGI (786-0 renal) [µM]	TGI (U251 CNS) [µM]	TGI (SN12C renal) [µM]	TGI (SF-268 CNS) [µM]	GI50 (A498 renal) [µM]	GI50 (CCRF-CEM leukemia) [µM]	GI50 (NCI-H460 lung)	GI50 (HOP-92 NSCLC) [nM]	GI50 (786-0 renal) [µM]	GI50 (U251 CNS) [µM]	GI50 (SN12C renal) [µM]	GI50 (SF-268 CNS) [µM]	GI50 (SK-MEL-2 melanoma) [µM]	GI50 (COLO 205 colon) [µM]
Cn1cnc([N+](=O)[O-])c1Sc1nccn1-c1ccccc1	> 100	99.3	> 100	> 100	> 100	81.1	> 100	> 100	> 100	> 100										
COC1OC(CO)C(O)C(NC(=O)N(C)N=O)C1O (stereo not given)	> 100	> 100	> 100	> 100	> 100	> 100	> 100	> 100	> 100	> 100										
CN1C(=O)CNS1(=O)=O	> 100	> 100		> 100	> 100	> 100	> 100	> 100	> 100	> 100										
CSc1nc(SC)c2c(C)cn(Cc3ccccc3)c2n1	> 100	> 100	> 100	> 100	> 100	> 100	> 100	> 100	> 100	> 100										
C#CCOCCCC(=O)O	> 100	> 100	> 100	> 100	> 100	> 100	> 100	> 100	> 100											
O=C(Cc1c(C(=O)Nc2ccccc2)sc(C(=O)Nc2ccccc2)c1CC(=O)Nc1ccccc1)Nc1ccccc1	> 100		> 100	> 100	> 100	> 100	> 100	> 100	> 100	13.7										
CC1OC(n2ccc3ccc([N+](=O)[O-])cc32)C(O)C(O)C1O (stereo not given)	> 100	> 100	> 100	> 100	> 100	> 100	> 100	> 100	> 100	> 100										
CC[C@@]1(O)C(=O)OCc2c1cc1n(c2=O)Cc2cc3c(OC)cccc3nc2-1		2.6	5.25		1.27	0.685	1.13		3.4	1.01	0.00301	0.00022	0.000801 µM and < 0.215 µM	0.0599	0.00394	0.00858	0.00326	0.0035		
OCC(O)COc1ccc(F)cc1 (stereo not given)	> 100	> 100	> 100	> 100	> 100	> 100	> 100	> 100	> 100	> 100										
O=P1(O)c2ccccc2CSCc2ccccc21	> 100	> 100	> 100	> 100	> 100	> 100	> 100	> 100	> 100	> 100										
CC1=CC=C2C(C)(C)CC[C@@H]3OC(=O)[C@H]1[C@]23C	> 100	> 100	> 100	> 100		> 100	> 100	> 100	> 100	> 100										
COc1ccc(/C=C/C(=O)c2ccc(B(O)O)cc2)cc1O	21.8	64.9	32	44.4	> 83.4	29.8	53.7	27	> 77.7	78.8	5.47	7.23	19.8 µM	3460	18.7	9.37	20.1	19.9	26.1	16.2
O=C(NCCNc1nccc(-c2c(-c3ccc(F)cc3)nc3sccn23)n1)Nc1cccc(C(F)(F)F)c1	23.8	8.8	7.73	30.1	17.5	33.3	24.9	31.7	22.7	41.1	10.7	3.14	4.51 µM	4590	5.16	7.62	6.42	12.2	3.02	2.57
CN1CCN(C(=O)OCc2nc3c(N4CCOCC4)nc(-c4ccccc4)nc3n2C)CC1	2.91	3.69	3.75	1.57	3.06	2.24	2.36	3.17	2.12	2.85	1.53	0.321	1.48 µM	765	0.993	1.52	0.814	1.41	1.85	1.36
COC(=O)c1oc([N+](=O)[O-])c(-c2ccccc2)c1-c1ccccc1	> 100	> 100	> 100	> 100	> 100	> 100	> 100	> 100	> 100	> 100										
COc1ccc(-c2nc(Nc3ccc(F)cc3)nc(Nc3ccc4c(c3)nc(C)n4Cc3ccccc3)n2)cc1	62.4	11.9	5.95	> 100	20.9	> 100	11.2	> 100	> 100	> 100	2.39	2.88	3.35 µM	2590	2.68	4.19	6.18	7.25	3.47	2.28
CCCC(c1cc(C(C)(C)C)c(O)cc1C)c1cc(C(C)(C)C)c(O)cc1C	4.51	7.22	5.4	6.88	3.92	22.5	5.41	6.85	3.81	15.1										
CC(C)[C@]12O[C@H]1[C@@H]1O[C@]13[C@]1(O[C@H]1C[C@H]1C4=C(CC[C@@]13C)C(=O)OC4)[C@@H]2OC(=O)OC(C)(C)C	0.0454	0.0603	0.0319	> 100	> 33.6		> 100	> 100	> 100	0.26	0.0145	0.0377	< 0.01 µM	44.8	0.0308	0.0253	0.0261	0.0251	0.0185	0.014
